Assay results published in patent publication US20260174875A1 (Novo Nordisk A/S, priority 2023, published 2026).

Experiment: Chemical stability assessment in formulation (UPLC-UV-MS purity loss at 37° C.)
Format: physicochemical
Settings: 8 mM phosphate buffer pH 7.4, 1 mg/mL, 2 weeks
Method: The assay was performed to investigate the extend of chemical degradation in vitro over time upon incubation at 37° C. for a period of 2 weeks.
Peptide solutions were prepared by dissolving freeze-dried powder in 8 mM phosphate buffer pH 7.4 to a target of 1 mg/mL. The pH of peptide solutions was adjusted to 7.4 with 0.02 M HCl or 0.02 M NaOH. Samples were filled in Agilent HPLC vials with fixed insert. Vials were capped to prevent evaporation. The HPLC vials were incubated at 37° C. and samples were withdrawn at different time points over a period of 2 weeks, flash frozen at −80° C., and stored at −20° C. until analysis.
A flow-rate of 100 μL/min was delivered with a Binary solvent manager pump having 0.1% formic acid in water as solvent A and 0.1% formic acid in acetonitrile as solvent B. Gradient elution was carried out using 20% B from 0 to 2 min followed by 20 to 50% B from 2 to 20 min in a total run time of 30 min.

Row | Purity loss per week at 37° C. [%] | Structure (SMILES)
1 | 1.0 | CC[C@H](C)[C@H](NC(=O)[C@H](CCC(=O)O)NC(=O)[C@H](CCC(=O)O)NC(=O)[C@H](CC(C)C)NC(=O)[C@H](CC(C)C)NC(=O)[C@@H](NC(=O)[C@H](CO)NC(=O)[C@H](Cc1ccc(O)cc1)NC(=O)[C@H](CC(=O)O)NC(=O)[C@H](CO)NC(=O)[C@@H](NC(=O)[C@H](Cc1ccccc1)NC(=O)[C@@H](NC(=O)CNC(=O)[C@H](CCC(=O)O)NC(=O)C(C)(C)NC(=O)[C@@H](N)Cc1ccc(O)cc1)[C@@H](C)O)[C@@H](C)O)[C@@H](C)CC)C(=O)N[C@@H](C)C(=O)N[C@@H](C)C(=O)N[C@@H](CCCNC(=N)N)C(=O)N[C@@H](CCC(=O)O)C(=O)N[C@@H](Cc1ccccc1)C(=O)N[C@H](C(=O)N[C@@H](CCC(=O)O)C(=O)N[C@@H](Cc1c[nH]c2ccccc12)C(=O)N[C@@H](CC(C)C)C(=O)N[C@@H](CC(C)C)C(=O)N[C@@H](C)C(=O)NCC(=O)NCC(=O)N1CCC[C@H]1C(=O)N[C@@H](CO)C(=O)N[C@@H](CO)C(=O)NCC(=O)N[C@@H](CCC(=O)O)C(=O)NCC(=O)N[C@@H](CCC(N)=O)C(=O)N[C@@H](C)C(=O)N1CCC[C@H]1C(=O)NCC(=O)N[C@@H](CCC(N)=O)C(=O)N[C@@H](C)C(=O)N1CCC[C@H]1C(=O)NCC(=O)N[C@@H](C)C(=O)N[C@@H](CO)C(=O)N[C@@H](Cc1c[nH]cn1)C(=O)N[C@@H](CC(C)C)C(=O)N[C@@H](CO)C(=O)N[C@H](C(=O)N[C@@H](C)C(=O)N[C@@H](CCC(N)=O)C(=O)N[C@H](C(=O)N[C@@H](CCC(N)=O)C(=O)N[C@@H](CCCNC(=N)N)C(=O)N[C@@H](CC(C)C)C(=O)N[C@@H](CO)C(=O)N[C@@H](C)C(=O)N[C@@H](CCC(=O)O)C(=O)N[C@@H](CC(C)C)C(=O)N[C@@H](Cc1c[nH]cn1)C(=O)N[C@@H](CCCCNC(=O)COCCOCCNC(=O)COCCOCCNC(=O)CC[C@H](NC(=O)CCCCCCCCCCCCCCCCCCC(=O)O)C(=O)O)C(=O)N[C@@H](CC(C)C)C(=O)N[C@@H](C)C(=O)N[C@H](C(=O)N[C@@H](CC(C)C)C(=O)N1CCC[C@H]1C(=O)N[C@@H](CCCNC(=N)N)C(=O)N[C@H](C(=O)N[C@@H](CCC(=O)O)C(=O)N[C@H](C(=O)NCC(=O)N[C@@H](CO)C(=O)NCC(=O)N[C@@H](CO)C(=O)N1CCC[C@H]1C(N)=O)[C@@H](C)O)[C@@H](C)O)[C@@H](C)O)[C@@H](C)O)[C@@H](C)O)[C@@H](C)CC [Compound 147]
2 | 1.7 | CC[C@H](C)[C@H](NC(=O)[C@H](CCC(=O)O)NC(=O)[C@H](CCC(=O)O)NC(=O)[C@H](CC(C)C)NC(=O)[C@H](CC(C)C)NC(=O)[C@H](CCCCNC(=O)COCCOCCNC(=O)COCCOCCNC(=O)CC[C@H](NC(=O)CCCCCCCCCCCCCCCCCCC(=O)O)C(=O)O)NC(=O)[C@H](CO)NC(=O)[C@H](Cc1ccc(O)cc1)NC(=O)[C@H](CC(=O)O)NC(=O)[C@H](CO)NC(=O)[C@@H](NC(=O)[C@H](Cc1ccccc1)NC(=O)[C@@H](NC(=O)CNC(=O)[C@H](CCC(=O)O)NC(=O)C(C)(C)NC(=O)[C@@H](N)Cc1ccc(O)cc1)[C@@H](C)O)[C@@H](C)O)C(=O)N[C@@H](C)C(=O)N[C@@H](C)C(=O)N[C@@H](CCCNC(=N)N)C(=O)N[C@@H](CCC(=O)O)C(=O)N[C@@H](Cc1ccccc1)C(=O)N[C@H](C(=O)N[C@@H](CCC(=O)O)C(=O)N[C@@H](Cc1c[nH]c2ccccc12)C(=O)N[C@@H](CC(C)C)C(=O)N[C@@H](CC(C)C)C(=O)N[C@@H](C)C(=O)NCC(=O)NCC(=O)N1CCC[C@H]1C(=O)N[C@@H](CO)C(=O)N[C@@H](CO)C(=O)N[C@@H](CCC(=O)O)C(=O)N[C@@H](C)C(=O)NCC(=O)N[C@@H](C)C(=O)N[C@@H](CO)C(=O)N[C@@H](Cc1c[nH]cn1)C(=O)N[C@@H](CC(C)C)C(=O)N[C@@H](CO)C(=O)N[C@H](C(=O)N[C@@H](C)C(=O)N[C@@H](CCC(N)=O)C(=O)N[C@@H](CC(C)C)C(=O)NCC(=O)N[C@@H](CCCNC(=N)N)C(=O)N[C@@H](CC(C)C)C(=O)N[C@@H](CO)C(=O)N[C@@H](C)C(=O)N[C@@H](CCC(=O)O)C(=O)N[C@@H](CC(C)C)C(=O)N[C@@H](Cc1c[nH]cn1)C(=O)N[C@@H](CCC(N)=O)C(=O)N[C@@H](CC(C)C)C(=O)N[C@@H](C)C(=O)N[C@H](C(=O)N[C@@H](CCC(=O)O)C(=O)N1CCC[C@H]1C(=O)N[C@@H](CCCNC(=N)N)C(=O)N[C@H](C(=O)N[C@@H](CCC(=O)O)C(=O)N[C@H](C(=O)NCC(=O)N[C@@H](CO)C(=O)NCC(=O)N[C@@H](CO)C(=O)N1CCC[C@H]1C(N)=O)[C@@H](C)O)[C@@H](C)O)[C@@H](C)O)[C@@H](C)O)[C@@H](C)CC [Compound 185]
3 | 1.0 | CC[C@H](C)[C@H](NC(=O)[C@H](CCC(=O)O)NC(=O)[C@H](CCC(=O)O)NC(=O)[C@H](CC(C)C)NC(=O)[C@H](CC(C)C)NC(=O)[C@H](CCCCNC(=O)COCCOCCNC(=O)COCCOCCNC(=O)CC[C@H](NC(=O)CCCCCCCCCCCCCCCCCCC(=O)O)C(=O)O)NC(=O)[C@H](CO)NC(=O)[C@H](Cc1ccc(O)cc1)NC(=O)[C@H](CC(=O)O)NC(=O)[C@H](CO)NC(=O)[C@@H](NC(=O)[C@H](Cc1ccccc1)NC(=O)[C@@H](NC(=O)CNC(=O)[C@H](CCC(=O)O)NC(=O)C(C)(C)NC(=O)[C@@H](N)Cc1ccc(O)cc1)[C@@H](C)O)[C@@H](C)O)C(=O)N[C@@H](C)C(=O)N[C@@H](C)C(=O)N[C@@H](CCCNC(=N)N)C(=O)N[C@@H](CCC(=O)O)C(=O)N[C@@H](Cc1ccccc1)C(=O)N[C@H](C(=O)N[C@@H](CCC(=O)O)C(=O)N[C@@H](Cc1c[nH]c2ccccc12)C(=O)N[C@@H](CC(C)C)C(=O)N[C@@H](CC(C)C)C(=O)N[C@@H](C)C(=O)NCC(=O)NCC(=O)N1CCC[C@H]1C(=O)N[C@@H](CO)C(=O)N[C@@H](CO)C(=O)NCC(=O)N[C@@H](C)C(=O)NCC(=O)N[C@@H](CCC(N)=O)C(=O)N[C@@H](C)C(=O)N1CCC[C@H]1C(=O)NCC(=O)N[C@@H](CCC(=O)O)C(=O)N[C@@H](C)C(=O)N1CCC[C@H]1C(=O)NCC(=O)N[C@@H](C)C(=O)N[C@@H](CO)C(=O)N[C@@H](CCC(=O)O)C(=O)N[C@@H](CC(C)C)C(=O)N[C@@H](CO)C(=O)N[C@H](C(=O)N[C@@H](C)C(=O)N[C@@H](C)C(=O)N[C@@H](CC(C)C)C(=O)NCC(=O)N[C@@H](CCCNC(=N)N)C(=O)N[C@@H](CC(C)C)C(=O)N[C@@H](CO)C(=O)N[C@@H](C)C(=O)N[C@@H](CCC(=O)O)C(=O)N[C@@H](CC(C)C)C(=O)N[C@@H](Cc1c[nH]cn1)C(=O)N[C@@H](CCC(N)=O)C(=O)N[C@@H](CC(C)C)C(=O)N[C@@H](C)C(=O)N[C@H](C(=O)N[C@@H](CC(C)C)C(=O)N1CCC[C@H]1C(=O)N[C@@H](CCCNC(=N)N)C(=O)N[C@H](C(=O)N[C@@H](CCC(=O)O)C(=O)N[C@H](C(=O)NCC(=O)N[C@@H](CO)C(=O)NCC(=O)N[C@@H](CO)C(=O)N1CCC[C@H]1C(N)=O)[C@@H](C)O)[C@@H](C)O)[C@@H](C)O)[C@@H](C)O)[C@@H](C)CC [Compound 171]
4 | 1.0 | CC[C@H](C)[C@H](NC(=O)[C@H](CCC(=O)O)NC(=O)[C@H](CCC(=O)O)NC(=O)[C@H](CC(C)C)NC(=O)[C@H](CC(C)C)NC(=O)[C@H](CCCCNC(=O)COCCOCCNC(=O)COCCOCCNC(=O)CC[C@H](NC(=O)CCCCCCCCCCCCCCCCCCC(=O)O)C(=O)O)NC(=O)[C@H](CO)NC(=O)[C@H](Cc1ccc(O)cc1)NC(=O)[C@H](CC(=O)O)NC(=O)[C@H](CO)NC(=O)[C@@H](NC(=O)[C@H](Cc1ccccc1)NC(=O)[C@@H](NC(=O)CNC(=O)[C@H](CCC(=O)O)NC(=O)C(C)(C)NC(=O)[C@@H](N)Cc1ccc(O)cc1)[C@@H](C)O)[C@@H](C)O)C(=O)N[C@@H](C)C(=O)N[C@@H](C)C(=O)N[C@@H](CCCNC(=N)N)C(=O)N[C@@H](CCC(=O)O)C(=O)N[C@@H](Cc1ccccc1)C(=O)N[C@H](C(=O)N[C@@H](CCC(=O)O)C(=O)N[C@@H](Cc1c[nH]c2ccccc12)C(=O)N[C@@H](CC(C)C)C(=O)N[C@@H](CC(C)C)C(=O)N[C@@H](C)C(=O)NCC(=O)NCC(=O)N1CCC[C@H]1C(=O)N[C@@H](CO)C(=O)N[C@@H](CO)C(=O)NCC(=O)N[C@@H](C)C(=O)NCC(=O)N[C@@H](C)C(=O)N[C@@H](CO)C(=O)N[C@@H](Cc1c[nH]cn1)C(=O)N[C@@H](CC(C)C)C(=O)N[C@@H](CO)C(=O)N[C@H](C(=O)N[C@@H](C)C(=O)N[C@@H](CCC(N)=O)C(=O)N[C@@H](CC(C)C)C(=O)NCC(=O)N[C@@H](CCCNC(=N)N)C(=O)N[C@@H](CC(C)C)C(=O)N[C@@H](CO)C(=O)N[C@@H](C)C(=O)N[C@@H](CCC(=O)O)C(=O)N[C@@H](CC(C)C)C(=O)N[C@@H](Cc1c[nH]cn1)C(=O)N[C@@H](CCC(N)=O)C(=O)N[C@@H](CC(C)C)C(=O)N[C@@H](C)C(=O)N[C@H](C(=O)N[C@@H](CCC(=O)O)C(=O)N1CCC[C@H]1C(=O)N[C@@H](CCCNC(=N)N)C(=O)N[C@H](C(=O)N[C@@H](CCC(=O)O)C(=O)N[C@H](C(=O)NCC(=O)N[C@@H](CO)C(=O)NCC(=O)N[C@@H](CO)C(=O)N1CCC[C@H]1C(N)=O)[C@@H](C)O)[C@@H](C)O)[C@@H](C)O)[C@@H](C)O)[C@@H](C)CC [Compound 184]
